Data set [1] can be described thus: PDMS sheets cleaned by Soxhlet with ethyl acetate; batch shaking method with a mixture of all chemicals at several PDMS-mass to water-volume ratios and spiked levels; vials shaken on an orbital shaker at room temperature in the dark, sampled at two equilibration times; PDMS extracts and water quantified by LC-HRMS (Orbitrap); D from the slope of C_PDMS on C_w or their ratio; value is the mean over that pH's experiments (individual experiments in the SI's concentrations table), sd is the table's stdev. The conditions noted are these: PDMS (polydimethylsiloxane silicone sheet), phosphate buffer at three target pH values (the paper's methods).

Data set [2] is described as follows: monoprotic acid or base: log K of the neutral species extrapolated from the linear regression of D on the neutral fraction (from pKa and pH; the paper's eq. for monoprotic IOCs), the slope giving K of the neutral species; replicates column holds the table's 95% confidence limits. PDMS sheets cleaned by Soxhlet with ethyl acetate; batch shaking method with a mixture of all chemicals at several PDMS-mass to water-volume ratios and spiked levels; vials shaken on an orbital shaker at room temperature in the dark, sampled at two equilibration times; PDMS extracts and water quantified by LC-HRMS (Orbitrap); D from the slope of C_PDMS on C_w or their ratio. The settings on record: PDMS (polydimethylsiloxane silicone sheet); phosphate buffer at three target pH values (the paper's methods).

Here are results for eleven molecules from paper PMC10114720.

As for `c1ccc(-c2ccc(C(c3ccccc3)n3ccnc3)cc2)cc1` (centres unmarked), the “log D PDMS/w (apparent distribution ratio at the stated pH)” value in data set [1] (pH 3) was 2.122 log units; D and K as the pape; in data set [1] (pH 7.4), 4.209 log units; D and K as the pape; in data set [1] (pH 11.5), 4.169 log units; D and K as the pape. Besides, the “log K PDMS/w (neutral species)” value in data set [2] is 4.281 log units; D and K as the pape.
`NC(=O)N1c2ccccc2C(O)C(O)c2ccccc21` (centres unmarked): the “log D PDMS/w (apparent distribution ratio at the stated pH)” value is -0.08 log units; D and K as the pape in data set [1] (pH 3); -0.44 log units; D and K as the pape in data set [1] (pH 7.4); -0.57 log units; D and K as the pape in data set [1] (pH 11.5). Further, the “log K PDMS/w (neutral species)” value in data set [2] was 0.07041 log units; D and K as the pape.
On to `O=c1c2ccccc2[nH]c2ccccc12`, for which the “log D PDMS/w (apparent distribution ratio at the stated pH)” value in data set [1] (pH 3) is 1.351 log units; D and K as the pape; in data set [1] (pH 7.4), 1.251 log units; D and K as the pape; in data set [1] (pH 11.5), 1.334 log units; D and K as the pape. Also, in data set [2], the “log K PDMS/w (neutral species)” value is 1.406 log units; D and K as the pape.
Take `Cc1ccc2[nH]nnc2c1`: the “log D PDMS/w (apparent distribution ratio at the stated pH)” value in data set [1] (pH 3) is 0.336 log units; D and K as the pape; in data set [1] (pH 7.4), 0.308 log units; D and K as the pape; in data set [1] (pH 11.5), -0.64 log units; D and K as the pape. In data set [2], the “log K PDMS/w (neutral species)” value was 0.3619 log units; D and K as the pape.
Turning to `c1ccc2nc3ccccc3cc2c1`, the “log D PDMS/w (apparent distribution ratio at the stated pH)” value was 0.945 log units; D and K as the pape in data set [1] (pH 3); 2.315 log units; D and K as the pape in data set [1] (pH 7.4); 2.167 log units; D and K as the pape in data set [1] (pH 11.5). Also, the “log K PDMS/w (neutral species)” value in data set [2] is 2.366 log units; D and K as the pape.
As to `CCNC(=O)[C@@H](C)OC(=O)Nc1ccccc1`, the “log D PDMS/w (apparent distribution ratio at the stated pH)” value was 0.635 log units; D and K as the pape in data set [1] (pH 3); 0.5527 log units; D and K as the pape in data set [1] (pH 7.4); 0.7717 log units; D and K as the pape in data set [1] (pH 11.5). Besides, in data set [2], the “log K PDMS/w (neutral species)” value was -0.07551 log units; D and K as the pape.
For the molecule `CCOC(=O)CC(O)(CC(=O)OCC)C(=O)OCC`, the “log D PDMS/w (apparent distribution ratio at the stated pH)” value in data set [1] (pH 3) is 1.101 log units; D and K as the pape; in data set [1] (pH 7.4), 1.143 log units; D and K as the pape. Further, the “log K PDMS/w (neutral species)” value in data set [2] was 0.9455 log units; D and K as the pape.
For `c1ccc2c(c1)[nH]c1cnccc12`, the “log D PDMS/w (apparent distribution ratio at the stated pH)” value was 1.471 log units; D and K as the pape in data set [1] (pH 3); 2.208 log units; D and K as the pape in data set [1] (pH 7.4); 2.227 log units; D and K as the pape in data set [1] (pH 11.5). In data set [2], the “log K PDMS/w (neutral species)” value was 2.353 log units; D and K as the pape.
As for `CCC1(c2ccccc2)C(=O)NCNC1=O`, the “log D PDMS/w (apparent distribution ratio at the stated pH)” value in data set [1] (pH 3) is 1.032 log units; D and K as the pape. The “log K PDMS/w (neutral species)” value in data set [2] was 1.057 log units; D and K as the pape.
Consider `CCOC(=O)c1ccc(N)cc1`, for which the “log D PDMS/w (apparent distribution ratio at the stated pH)” value is 0.4988 log units; D and K as the pape in data set [1] (pH 3); 0.4322 log units; D and K as the pape in data set [1] (pH 7.4); 0.4489 log units; D and K as the pape in data set [1] (pH 11.5). Also, the “log K PDMS/w (neutral species)” value in data set [2] was 0.5546 log units; D and K as the pape.
With `CCCCc1nc(Cl)c(CO)n1Cc1ccc(-c2ccccc2-c2nn[nH]n2)cc1`, the “log D PDMS/w (apparent distribution ratio at the stated pH)” value in data set [1] (pH 3) was 0.8893 log units; D and K as the pape; in data set [1] (pH 7.4) it was -0.01 log units; D and K as the pape; in data set [1] (pH 11.5), -0.67 log units; D and K as the pape. Also, the “log K PDMS/w (neutral species)” value in data set [2] was 1.068 log units; D and K as the pape.
